pIC50: −log10 of the molar value.
System: Plasmodium berghei
Test: Luciferase/luciferin-expressing antifolate-resistant parasites were used to infect a culture of HepG2 cells that were pre-incubated with compounds. Infected hepatocytes emit light due to the luciferase reaction. Assay results are presented as the percent inhibition of light emission compared to control. […]
Type: functional
Settings: sporozoite; for IC90: read-out: LUCIFERASE INFECTION ASSAY - IC90
[1] = read-out: LUCIFERASE INFECTION ASSAY - IC50

Row | SMILES | IC90 | pIC50 [1] | further results
1 | Cc1ccc(Cl)cc1N1CCN(C(=O)NCc2ccco2)CC1 | > 10 µM |  | pIC50 (HEPG2TOX_HILL_SLOPE 1.45, HEPG2TOX_R_SQUARED 0.763, PBLUC_HILL_SLOPE 1.12, PBLUC_R_SQUARED 0.27, read-out: LUCIFERASE INFECTION ASSAY - IC50): 5.22
2 | CC(C)NC(=O)c1c(NC(=O)c2cccc(C#N)c2)nc2ccccn12 | 7.68 µM |  | pIC50 (HEPG2TOX_HILL_SLOPE 1.47, HEPG2TOX_R_SQUARED 0.952, PBLUC_HILL_SLOPE 19.2, PBLUC_R_SQUARED 0.401, read-out: LUCIFERASE INFECTION ASSAY - IC50): 5.16
3 | Cc1onc(-c2c(Cl)cccc2Cl)c1C(=O)ONC(=N)c1c(Cl)cccc1Cl | > 7.19 µM |  | pIC50 (PBLUC_HILL_SLOPE 3.4, PBLUC_R_SQUARED 0.373, read-out: LUCIFERASE INFECTION ASSAY - IC50): 5.25
4 | CCOC(=O)c1sc(N)c(C#N)c1CSc1nnc(-c2ccc(OC)c(OC)c2)o1 | 9.92 µM |  | pIC50 (HEPG2TOX_HILL_SLOPE 2.07, 4.99, HEPG2TOX_R_SQUARED 0.833, 0.121, PBLUC_HILL_SLOPE 3.67, 1.56, PBLUC_R_SQUARED 0.0908, 0.540, read-out: LUCIFERASE INFECTION ASSAY - IC50): 5.39
5 | O=S(=O)(Cc1ccccc1)N1CCN(c2ncnc3sc(-c4ccccc4)cc23)CC1 | > 10 µM | < 5.00 | 
6 | O=C(Cc1csc(-c2ccccc2Cl)n1)Nc1cnc2ccccc2c1 | > 10 µM |  | pIC50 (HEPG2TOX_HILL_SLOPE 0.041, HEPG2TOX_R_SQUARED 0.0816, read-out: LUCIFERASE INFECTION ASSAY - IC50): < 5.00
7 | Cn1c(-c2ccccc2)nc2cnc(-c3cccc(Cl)c3)cc21 | 3.69 µM |  | pIC50 (HEPG2TOX_HILL_SLOPE 2.23, HEPG2TOX_R_SQUARED 0.754, PBLUC_HILL_SLOPE 11.6, PBLUC_R_SQUARED 0.591, read-out: LUCIFERASE INFECTION ASSAY - IC50): 5.51
8 | N#Cc1cc(NC(=O)c2ccc(Cl)cc2)ccc1Sc1ccccc1 | > 9.04 µM | < 5.04 | 
9 | COc1cc(C(=O)NC(c2ccccc2)c2ccc(C)cc2)ccc1OCC(=O)N1CCOCC1 (stereo unspecified) | > 10 µM | < 5.00 | 
10 | O=c1[nH]ncc(NCCCc2ccccc2)c1Cl | > 10 µM |  | pIC50 (HEPG2TOX_HILL_SLOPE 3.21, 1.90, HEPG2TOX_R_SQUARED 0.492, 0.980, PBLUC_HILL_SLOPE 2.78, PBLUC_R_SQUARED 0.0147, read-out: LUCIFERASE INFECTION ASSAY - IC50): 5.08
11 | COc1ccccc1-n1c(COc2ccccc2-c2ccccc2)nnc1SC(C(=O)NC(N)=O)C(C)C (stereo unspecified) | > 10 µM |  | pIC50 (HEPG2TOX_HILL_SLOPE 0.0773, HEPG2TOX_R_SQUARED 0.0989, read-out: LUCIFERASE INFECTION ASSAY - IC50): < 5.00
12 | CN(C)c1cccc(-c2ccc3nnc(-c4ccc5c(c4)OCO5)n3c2)c1 | 5.11 µM |  | pIC50 (HEPG2TOX_HILL_SLOPE 1.77, HEPG2TOX_R_SQUARED 0.976, PBLUC_HILL_SLOPE 2.39, PBLUC_R_SQUARED 0.666, read-out: LUCIFERASE INFECTION ASSAY - IC50): 5.69
13 | CC1(c2ccccc2)NC(=O)N(NC(=O)c2ccc(-c3ccccc3)cc2)C1=O (stereo unspecified) | > 10 µM |  | pIC50 (PBLUC_HILL_SLOPE 2.29, PBLUC_R_SQUARED 0.368, read-out: LUCIFERASE INFECTION ASSAY - IC50): 5.16
14 | COc1cc(-c2cc3c(cn2)nc(NCc2cccc(C)c2)n3C)cc(OC)c1OC | > 10 µM | 5.08 | 
15 | COC(=O)c1scc(C)c1N1C(=O)C=CC1=O | > 13.1 µM |  | pIC50 (PBLUC_HILL_SLOPE 9.1, PBLUC_R_SQUARED 0.327, read-out: LUCIFERASE INFECTION ASSAY - IC50): < 4.88
16 | COCOc1ccc(-c2cc(-c3cccc4cccnc34)cnc2N)cc1 | > 9.23 µM |  | pIC50 (HEPG2TOX_HILL_SLOPE 2.28, HEPG2TOX_R_SQUARED 0.55, PBLUC_HILL_SLOPE 1.41, PBLUC_R_SQUARED 0.714, read-out: LUCIFERASE INFECTION ASSAY - IC50): 5.49
17 | C/C(=N\N1CCCCC1)c1ccccc1O | > 10 µM | < 5.00 | 
18 | Cc1nc2c3c(C)c(C)n(Cc4ccccc4)c3ncn2n1 | > 11.3 µM |  | pIC50 (PBLUC_HILL_SLOPE 3.56, PBLUC_R_SQUARED 0.538, read-out: LUCIFERASE INFECTION ASSAY - IC50): 5.03
19 | N#CCNc1ccccc1 [(PHENYLAMINO)ACETONITRILE] | > 10 µM | < 5.00 | 
20 | CCCCNc1nc2ccccc2n1CC(=O)Nc1ccc(S(=O)(=O)N2CCCC2)cc1 | > 10 µM |  | pIC50 (PBLUC_HILL_SLOPE 1.82, PBLUC_R_SQUARED 0.488, read-out: LUCIFERASE INFECTION ASSAY - IC50): 5.44
21 | Cc1cc(C)n(-c2ccc(CN3c4ccc(S(N)(=O)=O)cc4CC3C)cc2)n1 (stereo unspecified) | 1.54 µM |  | pIC50 (HEPG2TOX_HILL_SLOPE 1.67, HEPG2TOX_R_SQUARED 0.825, PBLUC_HILL_SLOPE 15.8, PBLUC_R_SQUARED 0.537, read-out: LUCIFERASE INFECTION ASSAY - IC50): 5.87
22 | COc1ccc(-c2nn(-c3ccccc3)cc2C(=O)Nc2cc(C(F)(F)F)ccc2N2CCCCC2)cc1 | > 10 µM | < 5.00 | 

Row | SMILES | IC90 | pIC50 [1] | further results
23 | Cc1cc(C)n2cc(CN(C)Cc3ccccc3)nc2n1 | > 10 µM | < 5.00 | 
24 | O=C(Nc1ccc(Cl)c(Cl)c1)Nc1ccc(Cl)c(Cl)c1 | 1.35 µM |  | pIC50 (HEPG2TOX_HILL_SLOPE 2.86, HEPG2TOX_R_SQUARED 0.877, PBLUC_HILL_SLOPE 1.38, PBLUC_R_SQUARED 0.733, read-out: LUCIFERASE INFECTION ASSAY - IC50): 6.56
25 | Cc1noc(-c2ccc(Cl)cc2)c1C(=O)ONC(=N)c1ccc(C(F)(F)F)cc1 | > 7.79 µM | < 5.11 | 
26 | COc1ccc(CNC(=O)NC2CCCCCCC2)cn1 | > 10 µM | < 5.00 | 
27 | COc1cc(OC)c(C(=O)NC(C)C23CC4CC(CC(C4)C2)C3)cc1OC (stereo unspecified) | 9.64 µM |  | pIC50 (PBLUC_HILL_SLOPE 2.98, PBLUC_R_SQUARED 0.335, read-out: LUCIFERASE INFECTION ASSAY - IC50): 5.34
28 | N#C/C(=N\Nc1ccc(OC(F)(F)F)cc1)C(=O)C1CC1 | > 11.1 µM |  | pIC50 (HEPG2TOX_HILL_SLOPE 1.44, HEPG2TOX_R_SQUARED 0.96, PBLUC_HILL_SLOPE 2.87, PBLUC_R_SQUARED 0.372, read-out: LUCIFERASE INFECTION ASSAY - IC50): 5.13
29 | CC1C/C(=N\Nc2cc(Cl)cc(Cl)c2)c2cc(Cl)ccc2S1(=O)=O (stereo unspecified) | > 8.17 µM | 5.20 | 
30 | O=C(COC(=O)c1cc2ccccc2cc1O)NC(c1ccccc1)c1ccccc1 | > 10 µM |  | pIC50 (FFLUC_HILL_SLOPE 2.56, FFLUC_R_SQUARED 0.57, PBLUC_HILL_SLOPE 2.71, PBLUC_R_SQUARED 0.551, read-out: LUCIFERASE INFECTION ASSAY - IC50): 5.32
31 | COc1cc(OC)cc(-c2cn3c(-c4ccc(CO)cc4)cnc3cn2)c1 | 8.34 µM |  | pIC50 (PBLUC_HILL_SLOPE 5.1, PBLUC_R_SQUARED 0.643, read-out: LUCIFERASE INFECTION ASSAY - IC50): 5.27
32 | N#Cc1ccc(-c2cnc3cnc(-c4ccc(CNc5ccccc5)cc4)cn23)cc1 | 6.67 µM |  | pIC50 (HEPG2TOX_HILL_SLOPE 0.183, HEPG2TOX_R_SQUARED 0.0935, PBLUC_HILL_SLOPE 1.81, PBLUC_R_SQUARED 0.744, read-out: LUCIFERASE INFECTION ASSAY - IC50): 5.70
33 | Cc1cc(C)n(-c2ccc3c(Cl)cc(Cl)c(O)c3n2)n1 | 0.393 µM |  | pIC50 (HEPG2TOX_HILL_SLOPE 0.646, HEPG2TOX_R_SQUARED 0.957, PBLUC_HILL_SLOPE 194, PBLUC_R_SQUARED 0.635, read-out: LUCIFERASE INFECTION ASSAY - IC50): 6.41
34 | CCC(C)NC(=O)c1c(NC(=O)c2ccc(F)c(Cl)c2)nc2ccc(C)cn12 (stereo unspecified) | 5.96 µM |  | pIC50 (HEPG2TOX_HILL_SLOPE 2.61, HEPG2TOX_R_SQUARED 0.962, PBLUC_HILL_SLOPE 2.74, PBLUC_R_SQUARED 0.471, read-out: LUCIFERASE INFECTION ASSAY - IC50): 5.57
35 | Cc1sc2ncnc(N3CCC(C(=O)Nc4nnc(-c5cccc([N+](=O)[O-])c5)o4)CC3)c2c1C | > 10 µM | < 5.00 | 
36 | Cc1nn(C)c(C)c1NC(=O)C(C)Sc1nnc(Nc2ccc(Oc3ccccc3)cc2)s1 (stereo unspecified) | > 10 µM |  | pIC50 (PBLUC_HILL_SLOPE 13, PBLUC_R_SQUARED 0.117, read-out: LUCIFERASE INFECTION ASSAY - IC50): 5.05
37 | Cc1ccccc1CNC(=O)c1ccc(NC(=O)c2ccco2)s1 | > 10 µM |  | pIC50 (HEPG2TOX_HILL_SLOPE 9.39, HEPG2TOX_R_SQUARED 0.787, PBLUC_HILL_SLOPE 2.67, PBLUC_R_SQUARED 0.485, read-out: LUCIFERASE INFECTION ASSAY - IC50): 5.24
38 | O=C(Nc1nc(-c2ccc(F)cc2)cs1)c1cccc(S(=O)(=O)N2CCc3ccccc32)c1 | > 10 µM | < 5.00 | 
39 | Cc1cnc(NC(=O)Nc2cccc(C(F)(F)F)c2)s1 | 3.82 µM |  | pIC50 (FFLUC_HILL_SLOPE 11.7, FFLUC_R_SQUARED 0.144, HEPG2TOX_HILL_SLOPE 3.17, HEPG2TOX_R_SQUARED 0.951, PBLUC_HILL_SLOPE 13.6, PBLUC_R_SQUARED 0.664, read-out: LUCIFERASE INFECTION ASSAY - IC50): 5.49
40 | C=CCn1c(-c2ccccc2)c(C)sc1=Nc1ccc(Cl)cc1 | > 10 µM |  | pIC50 (PBLUC_HILL_SLOPE 11.2, PBLUC_R_SQUARED 0.0711, read-out: LUCIFERASE INFECTION ASSAY - IC50): 5.00
41 | Oc1c(C(c2ccccc2Cl)N2CCCC2)ccc2cccnc12 (stereo unspecified) | 4.97 µM |  | pIC50 (HEPG2TOX_HILL_SLOPE 12.7, HEPG2TOX_R_SQUARED 0.0314, PBLUC_HILL_SLOPE 8.39, PBLUC_R_SQUARED 0.486, read-out: LUCIFERASE INFECTION ASSAY - IC50): 5.42
42 | C#CCCCCCCCCC(=O)NO | > 10 µM | < 5.00 | 
43 | Cc1nc(NCc2ccco2)c2c(C)c(C)sc2n1 | 4.47 µM | 5.43 | 

From ChEMBL document CHEMBL4483862, “Open-source discovery of chemical leads for next-generation chemoprotective antimalarials” (2018)
